In US5492924A, “Phorbine derivatives and their use in the diagnosis and therapy of cancer” (Fox Chase Cancer Center, priority 1993, dated 1996):

Key:
EMT-6 tumors = assay: EMT-6 tumor regrowth assay after PDT; type: in vivo, C.B17/Icr scid mice; details: for Regrowth time (time to grow to two times the treatment volume): 300J of 670 nm one hr after administration
Procedure: (§1) Photosensitizer efficacy was measured with two different tumor models. Solid EMT-6 tumors (~0.1 cm^3) growing on the backs of C.B17/Icr scid mice were exposed to 300J of 670 nm light one hour after the iv administration of Ph4-OH. Light was generated by a laser, transported to the tumor-bearing mouse via an optical fiber and focused onto the tumor surface through a diffusing lens. The light dose rate at the tumor surface was 200-400 mW/cm^2 and the field size encompassed the tumor cross section. […] EMT-6 tumor response was quantified by two different assays. At various times after PDT treatment, animals were sacrified, tumors were removed in toto from the animal and mechanically disrupted. Tumor cells were released by an enzyme digestion procedure. Released tumor cells were plated into Petri dishes for colony forming assays.
Tumor response to PDT was also quantified by tumor regrowth assay. The volumes of both untreated and PDT-treated tumors in animals were estimated from caliper measurements made three times a week. Tumor response in vivo was characterized by acute inflammatory reaction observed on days 1 and 2 after treatment followed by tumor volume shrinkage and eventual cure or regrowth. These responses from individual tumors were quantified in days after treatment required for tumors to reach two times their treatment volume. […] Tumor response is a function of photosensitizer dosage. […] In this assay, some tumor cures are consistently observed when growth delay times are 15 days and greater.
TIME FOR EMT-6 TUMORS TO GROW TO TWO
TIMES THE TREATMENT VOLUME AFTER 300J
OF 670 NM DELIVERED ONE HR AFTER I.V.
PHOTOSENSITIZER ADMINISTRATION

EMT-6 mouse tumor cells [1] = assay: Photosensitizing effectiveness with EMT-6 tumor cells in vitro (photoinactivation); type: cell-based; details: for Photoinactivation rate (1/D50): 670 nm (pheophorbide) or 750 nm (bacteriopheophorbide), one hour exposure
Procedure: EMT-6 mouse tumor cells were exposed in slowly-stirred suspension cultures to various concentrations of Ph6-OH, Ph4-OH and BPh4-OH for one hour prior to illumination with graded light doses of specific wavelength. The pheophorbide and bacteriopheophorbide compounds were illuminated with 670 and 750 nm light, respectively. Illuminated cell populations were plated into Petri dishes containing appropriate media for colony forming assays. The surviving fraction (SF) of cells after various PDT treatments was computed from the ratio, [plating efficiency (treated cells)]/[plating efficiency (control cells)]. For each photosensitizer dosage investigated,survival curves of log SF versus light dose were constructed and analyzed. The light dose required to kill 50%, 90% and 99% of tumor cell populations (D50, D10 and D01) were determined. The reciprocal of light dose required to kill 50% of a tumor cell population (1/D50) was used as a photoinactivation rate for each concentration and as a basis for comparison of photosensitizer efficacy. Inactivation rates for the various photosensitizing agents activated with 630 (Photofrin® ), 670 (Ph6-OH) and 750 (BPh4-OH) nm light are shown in the accompanying Figure. Rates of photoinactivation and relative effectiveness of the pheophorbide and bacteriopheophorbide compounds compared to Photofrin®are given in Table C. The inactivation rate for Photofrin® was extrapolated from data generated at much higher drug concentrations utilizing the same experimental protocol. The relative effectiveness of Ph4-OH and BPh4-OH are approximately 800X and approximately 1150X, respectively.
For each concentration of photosensitizer compound studied, there was a threshold dose of light below which little or no cell killing occurred. […] For example, for PH6-OH at 0.1, 0.3 and 0.5 μM, the threshold light dose was 0.75, 0.18 and 0.08J/cm^2, respectively.

[2] = system: UNA mouse endothelial cells; assay: Photosensitizer drug uptake into UNA endothelial cells; type: cell-based
Procedure: (§2) EMT-6 mouse tumor and UNA mouse endothelial cells were exposed to various concentrations of the photosensitizer compounds of the invention in slowly-stirred suspension cultures. […] Cells were lysed and solubilized by mixing 1 mL of cell suspension with 1 mL 4% Triton X-100. After 2 hours of extraction, samples were mixed with 2 mL 95% EtOH and photosensitizer levels quantified by spectrofluorometry using Eex =400 nm and Eem =670 nm. […] For both cell lines, uptake is dependent upon photosensitizer concentration in the media and the larger volume tumor cells show the higher rates of uptake. If drug uptake rate is normalized to a standard cell volume, EMT-6 tumor cells bind the photosensitizer at 1.25 times that of UNA endothelial cells.

EMT-6 tumor cells = assay: Plating efficiency (colony forming assay) of EMT-6 tumor cells from tumors treated in vivo by PDT; set-up: species or system C.B17/Icr scid mice; details: for Plating efficiency, excision at 24 hr / Plating efficiency, immediate excision: 300J of 670 nm light
Procedure: as §1
IN VITRO PLATING EFFICIENCIES OF EMT-6
TUMOR CELLS FROM TUMORS TREATED IN VIVO
BY PDT WITH 300J OF 670 NM LIGHT

EMT-6 mouse tumor cells [3] = assay: Photosensitizer drug uptake into EMT-6 tumor cells; type: cell-based; details: for Initial binding rate: EMT-6
Procedure: as §2

[4] = system: Dunning prostate carcinomas (R3327-AT); assay: Tumor response and cure of Dunning prostate carcinomas after PDT; type: in vivo, Fischer X Copenhagen rats
From the text: Tumor response and cure was also investigated with 4-5 cm^3 Dunning prostate carcinomas (R3327-AT) growing in Fischer X Copenhagen rats. These tumors were illuminated by laser light delivered by a laterally-diffusing optical fiber applicator which contained seven fibers in an hexagonal array of equilateral triangles with 0.9 cm spacing.

[5] = .3 μM, compared to Photofrin (= 1)

## C=Cc1c(C)c2cc3nc(c4c5[nH]c(cc6nc(cc1[nH]2)C(C)=C6CC)c(C)c5C(=O)C4C(=O)OC)C(CCC(=O)NCCCCCCO)C3C (stereo not shown) [Ph6-OH, 9-Ethenyl-14-ethyl-21-(methoxycarbonyl)-4,8,13,18-tetramethyl-20-oxo-N-(6-hydroxyhexyl)-3-phorbinepropanamide]
EMT-6 tumors; 0.60 mg/kg i.v.
  Regrowth time (time to grow to two times the treatment volume): 4.7 ± 0.7 days
EMT-6 tumors; 1.00 mg/kg i.v.
  Regrowth time (time to grow to two times the treatment volume): 7.9 ± 1.3 days
EMT-6 tumors; 3.00 mg/kg i.v.
  Regrowth time (time to grow to two times the treatment volume): 25.5 ± 2.9 days
EMT-6 mouse tumor cells [1]; 0.1 μM
  Threshold light dose below which little or no cell killing occurred: 0.75 J/cm^2
EMT-6 mouse tumor cells [1]; 0.3 μM
  Threshold light dose below which little or no cell killing occurred: 0.18 J/cm^2
EMT-6 mouse tumor cells [1]; 0.5 μM
  Threshold light dose below which little or no cell killing occurred: 0.08 J/cm^2
EMT-6 mouse tumor cells [1]; .3 μM
  Photoinactivation rate (1/D50): 5.10 (J/cm^2)^-1
EMT-6 mouse tumor cells [1]; [5]
  Relative effectiveness: 567

## CCC1c2cc3[nH]c4c(c3C)C(=O)C(C(=O)OC)c4c3nc(cc4[nH]c(cc(n2)C1C)c(C(C)=O)c4C)C(C)C3CCC(=O)NCCCCO (stereo not shown) [BPh4-OH, 9-Acetyl-14-ethyl-13,14-dihydro-21-(methoxycarbonyl)-4,8,13,18-tetramethyl-20-oxo-N-(4-hydroxybutyl)-3-phorbinepropanamide]
EMT-6 mouse tumor cells [1]; .3 μM
  Photoinactivation rate (1/D50): 10.4 (J/cm^2)^-1
EMT-6 mouse tumor cells [1]; [5]
  Relative effectiveness: 1156
EMT-6 mouse tumor cells [1]; compared to Photofrin
  Relative effectiveness: approximately 1150 X

## C=Cc1c(C)c2cc3nc(c4c5[nH]c(cc6nc(cc1[nH]2)C(C)=C6CC)c(C)c5C(=O)C4C(=O)OC)C(CCC(=O)NCCCCO)C3C (stereo not shown) [Ph4-OH, 9-Ethenyl-14-ethyl-21-(methoxycarbonyl)-4,8,13,18-tetramethyl-20-oxo-N-(4-hydroxybutyl)-3-phorbinepropanamide]
EMT-6 tumors; 0.45 mg/kg i.v.
  Regrowth time (time to grow to two times the treatment volume): 4.3 ± 0.4 days
EMT-6 tumors; 0.75 mg/kg i.v.
  Regrowth time (time to grow to two times the treatment volume): 8.6 ± 0.5 days
EMT-6 tumors; 1.00 mg/kg i.v.
  Regrowth time (time to grow to two times the treatment volume): 12.4 ± 0.6 days
EMT-6 tumors; 1.50 mg/kg i.v.
  Regrowth time (time to grow to two times the treatment volume): > 22.0 days
EMT-6 tumors; 300J of 670 nm light, in words
  Tumor response (compared with Ph6-OH): superior tumor response
EMT-6 tumors; relative to Photofrin, photosensitizer dosage and light dose
  Potency relative to Photofrin for equal tumor growth delay: at least fifty times more potent
EMT-6 mouse tumor cells [1]; .3 μM
  Photoinactivation rate (1/D50): 7.30 (J/cm^2)^-1
EMT-6 mouse tumor cells [1]; [5]
  Relative effectiveness: 811
EMT-6 mouse tumor cells [1]; compared to Photofrin
  Relative effectiveness: approximately 800 X
[2]; 0.5 μM
  Initial binding rate: 0.067 μg/10^6 cells/hr
[2]; 1.0 μM
  Initial binding rate: 0.038 μg/10^6 cells/hr
EMT-6 tumor cells; 1 mg/kg iv
  Plating efficiency, excision at 24 hr: 0.001 ± 0.001
  Plating efficiency, immediate excision: 0.55 ± 0.07
EMT-6 tumor cells; 2 mg/kg iv
  Plating efficiency, excision at 24 hr: ≤ 0.0001
  Plating efficiency, immediate excision: 0.48 ± 0.09
EMT-6 tumor cells; 24 hr after PDT, in words
  Tumor cell plating efficiency when tumors excised 24 hr after PDT: decreased dramatically in proportion to photosensitizer concentration and light dose
EMT-6 tumor cells; immediately after PDT, in words
  Tumor cell killing when tumors excised immediately after PDT: little or no killing observed
EMT-6 tumor cells; relative to Photofrin, photosensitizer and light doses
  Potency relative to Photofrin for producing same extent of tumor cell kill in vivo: at least fifty times more potent
EMT-6 mouse tumor cells [3]; 0.5 μM
  Initial binding rate: 0.097 μg/10^6 cells/hr
EMT-6 mouse tumor cells [3]; 1.0 μM
  Initial binding rate: 0.068 μg/10^6 cells/hr
EMT-6 mouse tumor cells [3]; ratio EMT-6/UNA
  Uptake rate normalized to standard cell volume, EMT-6 tumor cells relative to UNA endothelial cells: 1.25 times
[4]; 2 mg/kg iv, 400J of 670 nm light one hour after administration, 4-5 cm^3 tumors
  Tumor necrosis and response: Complete tumor necrosis and response
[4]; relative to Photofrin
  Potency relative to Photofrin for inducing tumor necrosis and cure: at least eighty times more potent
